Measured values taken from ChEMBL document CHEMBL3603790, “2- and 3-Fluoro-3-deazaneplanocins, 2-fluoro-3-deazaaristeromycins, and 3-methyl-3-deazaneplanocin: Synthesis and antiviral properties” (Bioorg Med Chem, 2015).
Calls of active or inactive are those of the source. No cut-off for these calls is given here.

Tests used:
Rift Valley fever virus = assay: Antiviral activity against Rift Valley fever virus infected in African green monkey Vero 76 cells after 3 days by neutral red dye-based plaque reduction assay; format: functional, organism-based; details: for IC50: 72 h
Tacaribe virus = assay: Antiviral activity against Tacaribe virus infected in African green monkey Vero 76 cells after 3 days by neutral red dye-based plaque reduction assay; format: functional, organism-based; details: Mammarenavirus tacaribeense; for IC50: 72 h
Influenza B virus = assay: Antiviral activity against Influenza B virus infected in MDCK cells after 3 days by neutral red dye-based plaque reduction assay; format: functional, organism-based; details: 72 h
[1] = Cytotoxicity against African green monkey Vero 76 cells; format: cell-based; details: chlorocebus sabaeus; for CC50: Vero 76 cells; for Activity: vero 76
[2] = Cytotoxicity against African green monkey Vero 76 cells relative to control; format: cell-based; details: chlorocebus sabaeus
[3] = Cytotoxicity against MDCK cells relative to control; format: cell-based, Canis lupus familiaris; details: dog
Yellow fever virus = assay: Antiviral activity against Yellow fever virus infected in African green monkey Vero cells after 3 days by neutral red dye-based plaque reduction assay; format: functional, organism-based; details: 72 h
Dengue virus = assay: Antiviral activity against Dengue virus infected in African green monkey Vero cells after 3 days by neutral red dye-based plaque reduction assay; format: functional, organism-based; details: for IC50: 72 h
Human betaherpesvirus 5 = assay: Antiviral activity against HCMV infected in HFF after 3 days by neutral red dye-based plaque reduction assay; format: functional, organism-based; details: Human betaherpesvirus 5, 72 h
Influenza A virus [4] = assay: Antiviral activity against Influenza A virus H5N1 infected in MDCK cells after 3 days by neutral red dye-based plaque reduction assay; format: functional, organism-based; details: 72 h
[5] = Cytotoxicity against African green monkey Vero cells; format: cell-based; details: chlorocebus sabaeus, Vero cells
[6] = Cytotoxicity against African green monkey Vero cells relative to control; format: cell-based; details: chlorocebus sabaeus
[7] = Cytotoxicity against HFF; format: cell-based; details: human, HFF cells
[8] = (§1) Cytotoxicity against MDCK cells; format: cell-based, Canis lupus familiaris; details: dog, MDCK cells
[9] = Selectivity index, ratio of CC50 for African green monkey Vero cells to IC50 for Yellow fever virus; format: functional
[10] = Selectivity index, ratio of CC50 for African green monkey Vero 76 cells to IC50 for Rift Valley fever virus; format: functional
[11] = Selectivity index, ratio of CC50 for African green monkey Vero 76 cells to IC50 for Tacaribe virus; format: functional
[12] = Selectivity index, ratio of CC50 for African green monkey Vero cells to IC50 for Dengue virus; format: functional
[13] = Selectivity index, ratio of CC50 for HFF to IC50 for HCMV; format: functional
[14] = Selectivity index, ratio of CC50 for MDCK cells to IC50 for Influenza A virus H5N1 virus; format: functional
[15] = Selectivity index, ratio of CC50 for MDCK cells to IC50 for Influenza B virus; format: functional
West Nile virus = assay: Antiviral activity against WNV infected in African green monkey Vero 76 cells after 3 days by neutral red dye-based plaque reduction assay; format: functional, organism-based
Cowpox virus = assay: Antiviral activity against Cowpox virus infected in HFF after 3 days by neutral red dye-based plaque reduction assay; format: functional, organism-based
Vaccinia virus = assay: Antiviral activity against Vaccinia virus infected in HEL cells after 3 days by neutral red dye-based plaque reduction assay; format: functional, organism-based; details: Orthopoxvirus vaccinia
Enterovirus = assay: Antiviral activity against Rhinovirus infected in human HeLa Ohio-1 cells after 3 days by neutral red dye-based plaque reduction assay; format: functional, organism-based
unidentified adenovirus = assay: Antiviral activity against Adenovirus infected in human A549 cells after 3 days by neutral red dye-based plaque reduction assay; format: functional, organism-based
[16] = system: Respiratory syncytial virus; assay: Antiviral activity against Respiratory syncytial virus infected in human HeLa cells after 3 days by neutral red dye-based plaque reduction assay; format: functional, organism-based
[17] = system: Respiratory syncytial virus; assay: Antiviral activity against Respiratory syncytial virus infected in monkey MA104 cells after 3 days by neutral red dye-based plaque reduction assay; format: functional, organism-based
Influenza A virus [18] = assay: Antiviral activity against Influenza A virus H1N1 infected in MDCK cells after 3 days by neutral red dye-based plaque reduction assay; format: functional, organism-based
Influenza A virus [19] = assay: Antiviral activity against Influenza A virus H3N2 infected in MDCK cells after 3 days by neutral red dye-based plaque reduction assay; format: functional, organism-based
[20] = system: Venezuelan equine encephalitis virus; assay: Antiviral activity against Venezuelan equine encephalitis virus infected in African green monkey Vero cells after 3 days by neutral red dye-based plaque reduction assay; format: functional, organism-based
MA104 = assay: Antiviral activity against Parainfluenza virus infected in monkey MA104 cells after 3 days by neutral red dye-based plaque reduction assay; format: functional, cell-based; details: Paramyxoviridae
SARS-CoV = assay: Antiviral activity against SARS coronavirus infected in African green monkey Vero E6 cells after 3 days by neutral red dye-based plaque reduction assay; format: functional, organism-based; details: Severe acute respiratory syndrome-related coronavirus
HEL = assay: Cytotoxicity against HEL cells; format: cell-based; details: human
[21] = Cytotoxicity against human HeLa Ohio-1 cells; format: cell-based
A549 = assay: Cytotoxicity against human A549 cells; format: cell-based
[22] = Cytotoxicity against monkey MA104 cells; format: cell-based, Macaca mulatta; details: rhesus monkey
[23] = Inhibition of rabbit erythrocytic AdoHcy hydrolase using AdoHcy as substrate assessed as formation of L-homocysteine preincubated for 5 mins followed by substrate addition measured after 1 hr by thiol quantitation reagent-based assay; set-up: species or system Oryctolagus cuniculus
HeLa = assay: Cytotoxicity against human HeLa cells; format: cell-based
[24] = Cytotoxicity against African green monkey Vero E6 cells; format: cell-based; details: chlorocebus sabaeus
Measles morbillivirus = assay: Antiviral activity against Measles virus infected in African green monkey CV1 cells after 3 days by neutral red dye-based plaque reduction assay; format: functional, organism-based; details: CV-1, 72 h
[25] = Cytotoxicity against African green monkey CV1 cells; format: cell-based, CV-1; details: chlorocebus aethiops
[26] = Selectivity index, ratio of CC50 for African green monkey CV1 cells to IC50 for Measles virus; format: functional, CV-1
Hepatitis C virus = assay: Antiviral activity against Hepatitis C virus infected in human Ava5 cells after 3 days by neutral red dye-based plaque reduction assay; format: functional, organism-based; details: Hepacivirus hominis
[27] = Cytotoxicity against human Ava5 cells; format: cell-based
Hepatitis B virus = assay: Antiviral activity against HBV infected in human HepG22.2.15 cells after 3 days by neutral red dye-based plaque reduction assay; format: functional, organism-based; details: HepG2 2.2.15, 72 h
MDCK = assay: as §1; format: cell-based, Canis lupus familiaris; details: dog, mdck
[28] = Cytotoxicity against human […] cells; format: cell-based
[29] = Selectivity index, ratio of CC50 for human HepG2(2.2.1) cells to IC50 for HBV; format: functional
Human alphaherpesvirus 1 = assay: Antiviral activity against Human herpesvirus 1 infected in HEL cells after 3 days by neutral red dye-based plaque reduction assay; format: functional, organism-based
Human alphaherpesvirus 2 = assay: Antiviral activity against Human herpesvirus 2 infected in HEL cells after 3 days by neutral red dye-based plaque reduction assay; format: functional, organism-based
Enterovirus C = assay: Antiviral activity against Poliovirus infected in monkey LLC-MK2 cells after 3 days by neutral red dye-based plaque reduction assay; format: functional, organism-based
LLC-MK2 = assay: Cytotoxicity against monkey LLC-MK2 cells; format: cell-based, Macaca mulatta; details: rhesus monkey

Row | SMILES | IC50 (Rift Valley fever virus) [µM] | IC50 (Tacaribe virus) [µM] | IC50 (Influenza B virus) [µM] | CC50 [1] [µM] | CC50 [2] [µM] | CC50 [3] [µM] | IC50 (Yellow fever virus) [µM] | IC50 (Human betaherpesvirus 5) [µM] | CC50 [5] [µM] | CC50 [7] [µM] | Ratio CC50/IC50 [9] | Activity (West Nile virus) | Activity (Vaccinia virus) | Activity [16] | Activity [17] | Activity [20] | Activity (HEL) | Activity [22] | IC50 [23] [µM] | Activity (HeLa) | other results
1 | NC(=O)c1ncn([C@@H]2O[C@H](CO)[C@@H](O)[C@H]2O)n1 [RIBAVIRIN] | 37.3 | 26.7 | 9 | > 1000 | > 1000 | > 100 |  |  |  |  |  |  |  |  |  |  |  |  |  |  | 
2 | Nc1ncc(F)c2c1ncn2[C@@H]1C=C(CCO)[C@@H](O)[C@H]1O | 1.3 | < 0.34 | 1 | 3.4 | 190 | > 340 | 1.5 | 5.1 | > 340 | > 300 | >240 | inactive | inactive | inactive | inactive | inactive | Non-toxic | Non-toxic | 0.145 | Non-toxic | IC50 (Dengue virus): 15 µM; IC50 (Influenza A virus [4]): 139 µM; CC50 [6]: 109 µM; CC50 [8]: > 340 µM; Ratio CC50/IC50 [10]: 2.6; Ratio CC50/IC50 [11]: >560; Ratio CC50/IC50 [12]: 7.3; Ratio CC50/IC50 [13]: 759; Ratio CC50/IC50 [14]: >2.4; Ratio CC50/IC50 [15]: >340; Activity (Cowpox virus): inactive; Activity (Enterovirus): inactive; Activity (unidentified adenovirus): inactive; Activity (Influenza A virus [18]): inactive; Activity (Influenza A virus [19]): inactive; Activity (MA104): inactive; Activity (SARS-CoV): inactive; Activity [21]: Non-toxic; Activity (A549): Non-toxic; Activity [24]: Non-toxic
3 | Cc1cnc(N)c2ncn([C@@H]3C=C(CO)[C@@H](O)[C@H]3O)c12 | > 36 | 1.2 | 1.1 | 36 | 83.3 | > 362 | 3.6 | 6.4 | > 362 | 247 | >100 | inactive | inactive | inactive | inactive | inactive | Non-toxic | Non-toxic | 0.041 | Non-toxic | IC50 (Dengue virus): > 228 µM; IC50 (Influenza A virus [4]): 76 µM; CC50 [6]: 228 µM; CC50 [8]: 250 µM; Ratio CC50/IC50 [11]: 72; Ratio CC50/IC50 [13]: 38.6; Ratio CC50/IC50 [14]: 3.3; Ratio CC50/IC50 [15]: >320; Activity (Cowpox virus): inactive; Activity (Enterovirus): inactive; Activity (unidentified adenovirus): inactive; Activity (Influenza A virus [18]): inactive; Activity (Influenza A virus [19]): inactive; Activity (MA104): inactive; Activity (SARS-CoV): inactive; Activity [21]: Non-toxic; Activity (A549): Non-toxic; Activity [24]: Non-toxic
4 | Nc1nc(F)cc2c1ncn2[C@@H]1C[C@H](CO)[C@@H](O)[C@H]1O |  |  |  |  |  |  | 2.1 |  | > 355 |  | >170 | inactive | inactive | inactive | inactive | inactive | Non-toxic | Non-toxic | 3.32 | Non-toxic | Activity (Rift Valley fever virus): inactive; Activity (Tacaribe virus): inactive; Activity (Dengue virus): inactive; IC50 (Measles morbillivirus): 9.6 µM; Activity [1]: Non-toxic; CC50 [25]: > 355 µM; Ratio CC50/IC50 [26]: >37; Activity (Hepatitis C virus): inactive; Activity [27]: Non-toxic
5 | Nc1nc(F)cc2c1ncn2[C@@H]1C=C(CO)[C@@H](O)[C@H]1O |  |  |  |  |  |  | 6.8 | 8.7 | > 100 | 218 | >50 | inactive | inactive | inactive | inactive | inactive | Non-toxic | Non-toxic | 1.4 | Non-toxic | Activity (Rift Valley fever virus): inactive; Activity (Dengue virus): inactive; IC50 (Hepatitis B virus): 0.67 µM; IC50 (Measles morbillivirus): 8.5 µM; Activity [1]: Non-toxic; Activity (MDCK): Non-toxic; CC50 [28]: 11 µM; CC50 [25]: > 100 µM; Ratio CC50/IC50 [13]: 25; Ratio CC50/IC50 [29]: 17; Ratio CC50/IC50 [26]: >12; Activity (Influenza A virus [18]): inactive; Activity (SARS-CoV): inactive; Activity (Hepatitis C virus): inactive; Activity (Human alphaherpesvirus 1): inactive; Activity (Human alphaherpesvirus 2): inactive; Activity (Enterovirus C): inactive; Activity [27]: Non-toxic; Activity (LLC-MK2): Non-toxic; Activity [24]: Non-toxic
6 | Nc1cc2nc[nH]c2c(=O)[nH]1 [DEZAGUANINE] |  |  |  |  |  |  |  |  |  |  |  |  |  |  |  |  |  |  |  |  | IC50 (Measles morbillivirus): 4.1 µM; CC50 [25]: 250 µM
7 | Nc1nc2c(ncn2COC(CO)CO)c(=O)[nH]1 [GANCICLOVIR] |  |  |  |  |  |  |  | 3.6 |  | > 100 |  |  |  |  |  |  |  |  |  |  | 
8 | Nc1ncc(F)c2c1ncn2[C@@H]1C=C(CO)[C@@H](O)[C@H]1O | 6.4 | < 0.36 | < 0.36 | 36 | 114 | > 357 | > 224 | 0.3 | 224 | > 300 |  | inactive | inactive | inactive | inactive | inactive | Non-toxic | Non-toxic | 0.0068 | Non-toxic | IC50 (Dengue virus): 7.1 µM; IC50 (Influenza A virus [4]): 1 µM; CC50 [6]: 35.7 µM; CC50 [8]: 32.5 µM; Ratio CC50/IC50 [10]: 5.6; Ratio CC50/IC50 [11]: >317; Ratio CC50/IC50 [12]: 5; Ratio CC50/IC50 [13]: > 1040; Ratio CC50/IC50 [14]: 34; Ratio CC50/IC50 [15]: >1000; Activity (Cowpox virus): inactive; Activity (Enterovirus): inactive; Activity (unidentified adenovirus): inactive; Activity (Influenza A virus [18]): inactive; Activity (Influenza A virus [19]): inactive; Activity (MA104): inactive; Activity (SARS-CoV): inactive; Activity [21]: Non-toxic; Activity (A549): Non-toxic; Activity [24]: Non-toxic
9 | Nc1ccn([C@@H]2CS[C@H](CO)O2)c(=O)n1 [LAMIVUDINE] |  |  |  |  |  |  |  |  |  |  |  |  |  |  |  |  |  |  |  |  | IC50 (Hepatitis B virus): 0.039 µM; CC50 [28]: 2180 µM
